This is an account of results in patent publication US20230086703A1, “N-(4-(5-chloropyridin-3-yl)phenyl)-2-(2-(cyclopropanesulfonamido)pyrimidin-4-yl) butanamide derivatives and related compounds as human CTPS1 inhibitors for the treatment of proliferative diseases” (Step Pharma S.A.S., priority 2019, published 2023).

The target in assay [1] is T1, human CTPS1 (Homo sapiens, UniProt P17812).
T1 construct: FLAG (with GG linker); His8 (with GG linker); purchased Proteros biostructures GmbH
T1 sequence (P17812 1-591): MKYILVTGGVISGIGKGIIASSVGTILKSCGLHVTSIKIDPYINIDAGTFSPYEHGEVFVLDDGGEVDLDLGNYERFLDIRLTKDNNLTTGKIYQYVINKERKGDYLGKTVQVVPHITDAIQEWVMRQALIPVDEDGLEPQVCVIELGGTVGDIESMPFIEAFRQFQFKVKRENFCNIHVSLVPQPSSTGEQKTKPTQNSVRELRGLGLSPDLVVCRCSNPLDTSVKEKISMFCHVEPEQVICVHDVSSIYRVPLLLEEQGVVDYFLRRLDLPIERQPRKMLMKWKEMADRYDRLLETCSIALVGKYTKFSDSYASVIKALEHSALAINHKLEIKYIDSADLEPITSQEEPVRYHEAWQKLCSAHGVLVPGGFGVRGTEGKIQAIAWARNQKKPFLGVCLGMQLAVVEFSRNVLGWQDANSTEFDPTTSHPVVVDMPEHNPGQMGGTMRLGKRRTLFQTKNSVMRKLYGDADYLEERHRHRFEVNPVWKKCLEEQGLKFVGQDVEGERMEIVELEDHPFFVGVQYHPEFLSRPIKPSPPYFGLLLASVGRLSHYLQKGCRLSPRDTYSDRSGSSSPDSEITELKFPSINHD
Kind of assay: RapidFire/MS-based enzyme selectivity assay (human CTPS1 versus CTPS2), CTPS1 isoform. It counts as biochemical. How it is done: Human CTPS1 Versus CTPS2 Selectivity Assessment by RapidFire/MS Analysis.
The enzyme inhibitory activities against each target isoform of interest may be determined for the compounds of the invention using an optimised RapidFire high-throughput mass spectrometry (RF/MS) assay format. RF/MS assays for both human CTPS1 and CTPS2 may be performed in assay buffer consisting of 50 mM HEPES (Merck), 20 mM MgCl2, 5 mM KCl, 1 mM DTT, 0.01% Tween-20, pH to 8.0 accordingly. Human full-length active C-terminal FLAG-His-tag CTPS1 (UniProtKB—P17812, CTPS1[1-591]-[…] (CTPS1[1-591]-SEQ ID NO: 1)) may be obtained from Proteros biostructures GmbH. Human full length active C-terminal FLAG-His-Avi tagged CTPS2 (UniProtKB—Q9NRF8, CTPS2 [1-586]-[…] (CTPS2 [1-586]—SEQ ID NO: 2)) may be obtained from Harker Bio.
Human CTPS (1 or 2) protein may be prepared in 1× assay buffer to the final working protein concentration required for the reaction. A 2 uL volume per well of 2×CTPS (1 or 2) protein may be mixed with 40 nL of compound using acoustic (ECHO) delivery and incubated for 10 minutes at 25° C. Each isoform enzymatic reaction may be subsequently initiated by addition of 2 uL per well of a 2× substrate mix in assay buffer. For hCTPS1: ATP (0.3 mM), UTP (0.2 mM), GTP (0.07 mM) and L-glutamine (0.1 mM). For hCTPS2: ATP (0.1 mM), UTP (0.04 mM), GTP (0.03 mM) and L-glutamine (0.1 mM). Each mixture may be incubated for an appropriate amount of time per isoform within the determined linear phase of the reaction at 25° C. A 80 uL volume of stop solution (1% formic acid with 0.5 uM ^13C9-^15N3-CTP in H2O) may be added and the plate immediately heat-sealed and centrifuged for 10 minutes at 4,000 rpm. Following centrifugation, plates may be loaded onto the Agilent RapidFire microfluidic solid phase extraction system coupled to an API4000 triple quadrupole mass spectrometer (RF/MS) for analysis.
In all cases, the enzyme converts UTP to CTP. Highly specific and sensitive multiple reaction monitoring (MRM) MS methods may be optimised for the detection of the enzymatic reaction product, CTP, and the stable isotope labelled product standard ^13C9-^15N3-CTP. Readout for data analysis may be calculated as the ratio between the peak area of the product CTP and the internal standard ^13C9-^15N3-CTP. For data reporting, the following equation may be used:
(R=ratio/readout, P=product signal area, IS=internal standard signal area)
For each screening plate, the means of the negative (DMSO) and positive control values were used for the calculation of the respective assay window (S/B) and Z′ values. The median of the respective control values was used for calculation of percent inhibition according to the following equation:
(I=Inhibition, Rneq=median of negative control readout values, Rpos=median of positive control readout values, Rsample=sample readout value)
Percentage inhibition was then plotted against compound concentration, and the 50% inhibitory concentration (IC50) was determined from the resultant concentration-response curve.
Fold selectivity between CTPS1 and CTPS2 was subsequently calculated according to the following equation: […]

In assay [2] the target is T1, human CTPS1. Kind of assay: Human CTPS1 enzyme inhibition, ADP-Glo Max assay. In kind it is biochemical. The settings on record: ADP-Glo Max assay; Table 10; read-out: Human CTPS1 Enzyme Inhibition, IC50 grouped by potency range (CTPS1). The essentials: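 Read-out is ADP-Glo Max luminescence: residual ATP depleted (60 min), then produced ADP converted back to ATP for luciferase detection (60 min). Beforehand, protein and compound were mixed for 10 min at 25 °C in Tris buffer pH 8.0 with MgCl2, Tween-20 and 2 mM L-cysteine. Results expressed as percentage inhibition per concentration.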

Setting [3] is: Table 16, human CTPS1 over human CTPS2, RapidFire/MS IC50 values.
Setting [4] is: RapidFire/MS IC50 values of CTPS1 and CTPS2, Table 17.
Where [5] appears, read: RapidFire/MS IC50 values of CTPS1 and CTPS2, Table 15.

Where only a bound is given, the exact number is not on record here.

Turning to `CCOc1cncc(-c2ccc(C(=O)NC(C)(C)c3nc(NS(=O)(=O)C4CC4)sc3C)c(F)c2)n1` [R74, N-(2-(2-(cyclopropanesulfon-amido)-5-methylthiazol-4-yl)propan-2-yl)-4-(6-ethoxypyrazin-2-yl)-2-fluorobenzamide], the “Selectivity (fold selectivity between CTPS1 and CTPS2)” value on human CTPS1 [1] (setting [3]) is reported as “++ (>30-60 fold (++))”.
Consider `CCOc1cncc(-c2ccc(NC(=O)C3(c4ccnc(NS(=O)(=O)C5CC5)n4)CCC4(CC3)OCCO4)nc2)n1` [P244, 8-(2-(cydopropanesulfonamido)pyrimidin-4-yl)-N-(5-(6-ethoxypyrazin-2-yl)pyridin-2-yl)-1,4-dioxaspiro[4.5]decane-8-carboxamide], for which the “Selectivity (fold selectivity between CTPS1 and CTPS2)” value on human CTPS1 [1] (setting [4]) is “+++ (>60 fold (+++))”.
For `CCOc1cncc(-c2ccc(NC(=O)C3(c4ccnc(NS(=O)(=O)C5CC5)n4)CCC(=O)CC3)nc2)n1` [P226, 1-(2-(Cydopropanesulfonamido)pyrimidin-4-yl)-N-(5-(6-ethoxypyrazin-2-yl)pyridin-2-yl)-4-oxocyclohexanecarboxamide], the “Selectivity (fold selectivity between CTPS1 and CTPS2)” value at human CTPS1 [1] (setting [4]) is listed as “+++ (>60 fold (+++))”.
Take `CC(C)(NC(=O)c1ccc(-c2cncc(C(F)(F)F)n2)cc1)c1cncc(NS(=O)(=O)C2CC2)n1` [P222, N-(2-(6-(cyclopropanesulfonamido)pyrazin-2-yl)propan-2-yl)-4-(6-(trifluoromethyl)pyrazin-2-yl)benzamide]: the “Selectivity (fold selectivity between CTPS1 and CTPS2)” value at human CTPS1 [1] (setting [5]) is given as “+ (2-30 fold (+))”.
Regarding `CCOc1cncc(-c2ccc(NC(=O)C(C)(C)c3cncc(NS(=O)(=O)C4CC4)n3)cc2)n1` [P196, 2-(6-(cyclopropanesulfonamido)pyrazin-2-yl)-N-(4-(6-ethoxypyrazin-2-yl)phenyl)-2-methylpropanamide], the “Selectivity (fold selectivity between CTPS1 and CTPS2)” value at human CTPS1 [1] (setting [5]) was “+++ (>60 fold (+++))”.
Same read-out and setting: for `CCOc1cncc(-c2ccc(NC(=O)C(C)(C)c3ccnc(NS(=O)(=O)CC)n3)cc2)n1` [P74, N-(4-(6-ethoxypyrazin-2-yl)phenyl)-2-(2-(ethylsulfonamido)pyrimidin-4-yl)-2-methylpropanamide] the value was “++ (>30-60 fold (++))”.
With `CCC(NC(=O)c1ccc(-c2cncc(C(F)(F)F)n2)cc1)c1csc(NS(=O)(=O)C2CC2)n1` (stereo not shown) [R5, N-(1-(2-(cyclopropanesulfonamido)thiazol-4-yl)propyl)-4-(6-(trifluoromethyl)pyrazin-2-yl)benzamide], the “Selectivity (fold selectivity between CTPS1 and CTPS2)” value at human CTPS1 [1] (setting [3]) is reported as “+ (2-30 fold (+))”.
Still for that read-out and setting: for `CCOc1cncc(-c2ccc(C(=O)N(C)C(CC)c3csc(NS(=O)(=O)C4CC4)n3)c(F)c2)n1` (racemic) [R63, N-(1-(2-(cyclopropanesulfonamido)thiazol-4-yl)propyl)-4-(6-ethoxypyrazin-2-yl)-2-fluoro-N-methylbenzamide] the value was “+ (2-30 fold (+))”.
Take `CCOc1cncc(-c2cnc(NC(=O)C(CC)c3ccnc(NS(=O)(=O)C4CC4)n3)c(C)c2)n1` (stereo not shown) [P155, 2-(2-(cyclopropanesulfonamido)pyrimidin-4-yl)-N-(5-(6-ethoxypyrazin-2-yl)-3-methylpyridin-2-yl)butanamide]: the “Selectivity (fold selectivity between CTPS1 and CTPS2)” value on human CTPS1 [1] (setting [5]) is recorded as “+ (2-30 fold (+))”.
Consider `CCOc1cncc(-c2ccc(C(=O)NC(CCOC)c3csc(NS(=O)(=O)C4CC4)n3)cc2)n1` (stereo not shown) [R90, N-(1-(2-(cyclopropanesulfon-amido)thiazol-4-yl)-3-methoxypropyl)-4-(6-ethoxy-pyrazin-2-yl)benzamide], for which, on human CTPS1 [1] (setting [3]), the “Selectivity (fold selectivity between CTPS1 and CTPS2)” value was “++ (>30-60 fold (++))”.
As to `CCOc1cncc(-c2ccc(NC(=O)C3(c4ccnc(NS(=O)(=O)C5CC5)n4)CCC(N(C)C)CC3)nc2)n1` (single isomer, unassigned) [P229, 1-(2-(cyclopropanesulfonamido)pyrimidin-4-yl)-4-(dimethylamino)-N-(5-(6-ethoxypyrazin-2-yl)pyridin-2-yl)cyclohexane-1-carboxamide], the “Selectivity (fold selectivity between CTPS1 and CTPS2)” value at human CTPS1 [1] (setting [4]) was “+++ (>60 fold (+++))”.
With `CCOc1cncc(-c2ccc(NC(=O)C3(c4ccnc(NS(=O)(=O)C5CC5)n4)CC3)cc2)n1` [P83, 1-(2-(cyclopropanesulfonamido)pyrimidin-4-yl)-N-(4-(6-ethoxypyrazin-2-yl)phenyl)cyclopropanecarboxamide], on human CTPS1 [1] (setting [5]), the “Selectivity (fold selectivity between CTPS1 and CTPS2)” value is given as “+++ (>60 fold (+++))”.
Still for that read-out and setting: under `CC(C)(C(=O)Nc1ccc(-c2cncc(C3CC3)n2)cc1F)c1ccnc(NS(=O)(=O)C2CC2)n1` [P128, 2-(2-(cyclopropanesulfonamido)pyrimidin-4-yl)-N-(4-(9-cyclopropylpyrazin-2-yl)-2-fluorophenyl)-2-methylpropanamide] stands “+ (2-30 fold (+))”.
Take `CCC(C(=O)Nc1ccc(-c2cncc(OC)n2)cn1)c1ccnc(NS(=O)(=O)C2CC2)n1` (stereo not shown) [P159, 2-(2-(cyclopropanesulfonamido)pyrimidin-4-yl)-N-(5-(6-methoxypyrazin-2-yl)pyridin-2-yl)butanamide]: the “Selectivity (fold selectivity between CTPS1 and CTPS2)” value on human CTPS1 [1] (setting [5]) is “+++ (>60 fold (+++))”.
On the same count and under the same terms, for `CCOc1cncc(-c2ccc(NC(=O)C(C)(C)c3nc(NS(=O)(=O)C4CC4)ncc3F)cc2)n1` [P68, 2-(2-(cyclopropanesulfonamido)-5-fluropyrimidin-4-yl)-N-(4-(9-ethoxypyrazin-2-yl)phenyl)-2-methylpropanamide] the value was “++ (>30-60 fold (++))”.
Turning to `CC(C)(NC(=O)c1ccc(-c2cncc(Cl)n2)cc1)c1csc(NS(=O)(=O)C2CC2)n1` [R52, 4-(6-chloropyrazin-2-yl)-N-(2-(2-(cyclopropanesulfon-amido)thiazol-4-yl)propan-2-yl)benzamide], the “Selectivity (fold selectivity between CTPS1 and CTPS2)” value on human CTPS1 [1] (setting [3]) was “+++ (>60 fold (+++))”.
On the same count and under the same terms, under `CCC(NC(=O)c1ccc(-c2cncc(F)c2)cc1)c1csc(NS(=O)(=O)C2CC2)n1` (single isomer, unassigned) [R68, N-(1-(2-(cyclopropanesulfon-amido)thiazol-4-yl)propyl)-4-(5-fluoropyridin-3-yl)benzamide] stands “++ (>30-60 fold (++))”; under `Cc1cc(-c2cncc(C(F)(F)F)n2)ccc1C(=O)NC(C)(C)c1csc(NS(=O)(=O)C2CC2)n1` [R45, N-(2-(2-(cyclopropanesulfonamido)thiazol-4-yl)propan-2-yl)-2-methyl-4-(6-(trifluoromethyl)pyrazin-2-yl)benzamide], “++ (>30-60 fold (++))”.
Take `CCC(CC)(C(=O)Nc1ccc(-c2cccnc2)cc1F)c1csc(NS(=O)(=O)C2CC2)n1` [T121, 2-(2-(cyclopropanesulfonamido)thiazol-4-yl)-2-ethyl-N-(2-fluoro-4-(pyridin-3-yl)phenyl)butanamide]: on human CTPS1 [2], the IC50 was below 100 nM.
